Results on 27 compounds are retold here after ChEMBL document CHEMBL1201862, “PubChem BioAssay data set” (2004).

SMILES strings stand for the structures. Calls of active or inactive are those of the source.

For experiment [1], the target named is T1, Corticotropin-releasing factor receptor 2/Corticotropin-releasing factor-binding protein (Homo sapiens, UniProt P24387+Q13324).
T1 sequence (Q13324 whole entry): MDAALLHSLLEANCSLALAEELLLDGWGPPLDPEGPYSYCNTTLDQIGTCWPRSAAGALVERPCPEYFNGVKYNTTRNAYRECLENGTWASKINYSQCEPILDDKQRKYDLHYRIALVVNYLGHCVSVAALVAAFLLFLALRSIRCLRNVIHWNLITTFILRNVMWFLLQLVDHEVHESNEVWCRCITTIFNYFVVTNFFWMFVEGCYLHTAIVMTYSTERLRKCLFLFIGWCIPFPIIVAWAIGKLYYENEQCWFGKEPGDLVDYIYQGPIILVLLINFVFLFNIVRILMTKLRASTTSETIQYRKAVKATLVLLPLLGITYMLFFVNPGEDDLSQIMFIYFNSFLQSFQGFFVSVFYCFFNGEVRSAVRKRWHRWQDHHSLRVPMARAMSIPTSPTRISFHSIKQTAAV
T1 sequence (P24387 whole entry): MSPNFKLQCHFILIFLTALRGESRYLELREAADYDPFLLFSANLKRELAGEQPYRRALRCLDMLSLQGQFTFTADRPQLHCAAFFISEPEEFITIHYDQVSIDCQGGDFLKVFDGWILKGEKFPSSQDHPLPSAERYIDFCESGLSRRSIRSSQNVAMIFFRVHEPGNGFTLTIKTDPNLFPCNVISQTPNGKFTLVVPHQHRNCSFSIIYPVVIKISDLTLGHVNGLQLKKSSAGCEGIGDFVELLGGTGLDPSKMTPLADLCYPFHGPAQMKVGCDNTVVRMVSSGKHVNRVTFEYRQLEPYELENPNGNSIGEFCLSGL
The experiment is described as follows: activators of CRF receptor 2 with binding protein – uHTS hits, confirmation (AID 602473). Conditions: read-out: EC50_Mean. The experiment is classed as functional.

Experiment [2] concerns H9c2. The experiment is described as follows: cells. It is filed as functional, cell-based. Conditions: Rattus norvegicus, H9c2, Myocardium.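 Further: confirmatory concentration-response retest of ultra-high-throughput screening hits for modulation of myocardial damage; cell death induced by hydrogen peroxide oxidative stress; compound pretreatment for 60 min then peroxide exposure for 2 h; potency is for protecting the cells against peroxide damage rather than for killing them.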
In experiment [3] the target is T2, Protein skinhead-1 (Caenorhabditis elegans, UniProt P34707).
T2 sequence (P34707 whole entry): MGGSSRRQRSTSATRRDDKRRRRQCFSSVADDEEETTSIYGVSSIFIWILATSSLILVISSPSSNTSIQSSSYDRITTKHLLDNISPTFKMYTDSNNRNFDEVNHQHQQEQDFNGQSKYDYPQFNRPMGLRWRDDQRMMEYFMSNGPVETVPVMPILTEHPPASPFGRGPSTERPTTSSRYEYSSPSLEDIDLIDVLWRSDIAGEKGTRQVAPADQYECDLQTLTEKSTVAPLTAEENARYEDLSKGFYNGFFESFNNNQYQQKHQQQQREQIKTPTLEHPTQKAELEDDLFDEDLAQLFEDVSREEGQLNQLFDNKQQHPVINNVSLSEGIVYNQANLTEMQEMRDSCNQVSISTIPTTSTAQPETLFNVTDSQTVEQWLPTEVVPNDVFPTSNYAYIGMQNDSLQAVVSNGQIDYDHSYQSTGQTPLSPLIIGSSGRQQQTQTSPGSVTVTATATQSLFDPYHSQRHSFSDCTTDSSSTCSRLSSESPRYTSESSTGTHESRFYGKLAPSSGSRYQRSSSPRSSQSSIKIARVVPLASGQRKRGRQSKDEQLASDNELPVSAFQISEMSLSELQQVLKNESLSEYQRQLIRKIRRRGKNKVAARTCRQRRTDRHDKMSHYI
It is filed as functional.

Experiment [4] addresses T3, Polyadenylate-binding protein 1 (Homo sapiens, UniProt P11940). The experiment is described as follows: MLLE domain peptide-binding blockers, IC50 – biochemical, fluorescence polarization, FITC-PAM2 peptide, dose response (AID 602259). It is filed as functional. Conditions: read-out: IC50_Mean.
Experiment [5] has as its target T3, Polyadenylate-binding protein 1. The experiment is described as follows: MLLE binding blockers, Cy5 peptide tracer – biochemical, fluorescence polarization, Cy5-PAM2 peptide, secondary, miRNA deadenylation inhibitor project, dose response (AID 602260). The experiment is classed as functional. Conditions: read-out: IC50_Mean.
The target of experiment [6] is T4, Heat shock factor protein 1 (Mus musculus, UniProt P38532).
T4 sequence (P38532 whole entry): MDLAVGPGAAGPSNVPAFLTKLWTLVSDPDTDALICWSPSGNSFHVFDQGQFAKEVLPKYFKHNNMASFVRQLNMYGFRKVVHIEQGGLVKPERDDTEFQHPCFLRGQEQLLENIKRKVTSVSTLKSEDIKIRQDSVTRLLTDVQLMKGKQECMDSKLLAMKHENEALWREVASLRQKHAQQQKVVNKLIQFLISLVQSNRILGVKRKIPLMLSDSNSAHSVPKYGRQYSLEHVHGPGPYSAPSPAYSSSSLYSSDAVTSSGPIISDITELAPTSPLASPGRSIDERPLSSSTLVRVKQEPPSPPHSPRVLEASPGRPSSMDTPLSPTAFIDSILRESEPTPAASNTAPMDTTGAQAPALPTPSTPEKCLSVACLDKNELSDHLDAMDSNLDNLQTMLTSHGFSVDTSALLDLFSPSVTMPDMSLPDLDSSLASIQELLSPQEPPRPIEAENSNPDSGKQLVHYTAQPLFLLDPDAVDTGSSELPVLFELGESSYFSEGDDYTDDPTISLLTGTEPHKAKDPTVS
Put plainly: decrease of HSF1-responsive luciferase luminescence – cell-based, NIH3T3, dose retest, confirmation (AID 2382).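 Further: NIH3T3 fibroblasts with HSF1-driven luciferase reporter stressed by proteasome inhibitor MG132; luminescence from HSF1-driven luciferase expression after 8 hours of MG132 stress.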 The experiment is classed as functional.

A short description of experiment [7]: fluconazole-exposed Candida albicans growth modulators – fluorescence, retest, confirmation (AID 2467). It is filed as functional, cell-based.
Experiment [8] addresses T5, Zinc finger protein mex-5 (Caenorhabditis elegans, UniProt Q9XUB2).
T5 sequence (Q9XUB2 whole entry): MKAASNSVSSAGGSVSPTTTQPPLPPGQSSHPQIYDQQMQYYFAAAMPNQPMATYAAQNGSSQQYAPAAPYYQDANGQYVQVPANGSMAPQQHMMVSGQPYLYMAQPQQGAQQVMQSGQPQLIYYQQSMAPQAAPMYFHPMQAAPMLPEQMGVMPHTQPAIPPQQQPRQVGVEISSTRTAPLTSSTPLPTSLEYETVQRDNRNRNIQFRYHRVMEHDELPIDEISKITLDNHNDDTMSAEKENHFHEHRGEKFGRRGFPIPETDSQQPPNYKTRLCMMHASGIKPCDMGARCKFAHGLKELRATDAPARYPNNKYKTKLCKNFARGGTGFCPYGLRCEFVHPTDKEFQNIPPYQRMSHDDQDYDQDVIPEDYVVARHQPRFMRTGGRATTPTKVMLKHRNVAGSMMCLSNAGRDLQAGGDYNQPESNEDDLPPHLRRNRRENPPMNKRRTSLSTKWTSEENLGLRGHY
Put plainly: potency of MEX-5 RNA-binding blockers – biochemical, C. elegans, fluorescence polarization, dose response (AID 1960). In general terms: Fluorescence polarisation rises when a labelled molecule tumbles more slowly, as on binding a larger partner.

The nature of experiment [9]: NIH-3T3 fibroblast cytotoxicity, dose response, cytotoxicity control, cell-based, fluorescence, Alamar Blue, secondary assay (AID 2327).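 Further: NIH-3T3 mouse fibroblasts cultured with fluconazole at 8 µg/mL.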 It is filed as functional. (In general: The colour change of resazurin is a common sign of viable cells or microbes.)
Experiment [10] concerns the target T6, RNA-binding protein pos-1 (Caenorhabditis elegans, UniProt G5EF15).
T6 sequence (G5EF15 whole entry): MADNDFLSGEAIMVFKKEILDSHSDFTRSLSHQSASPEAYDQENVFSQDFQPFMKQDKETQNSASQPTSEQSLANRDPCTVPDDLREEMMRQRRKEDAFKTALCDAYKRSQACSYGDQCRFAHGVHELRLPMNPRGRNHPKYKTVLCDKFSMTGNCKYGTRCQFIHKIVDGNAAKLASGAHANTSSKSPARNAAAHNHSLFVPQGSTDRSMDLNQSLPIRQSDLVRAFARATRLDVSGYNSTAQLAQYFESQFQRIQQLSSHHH
Put plainly: disruptors of C. elegans POS-1 RNA interaction – biochemical, fluorescence polarization, dose response (AID 1964).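 Further: purified POS-1 fused to maltose binding protein made in E. coli; potency of compounds blocking POS-1 binding to fluorescent RNA.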

Experiment [11] deals with T4, Heat shock factor protein 1. Put plainly: enhancement of HSF1-driven luciferase signal – cell-based, NIH3T3, luminescence, dose retest, confirmation (AID 435004).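 Further: stress induced by proteasome inhibitor MG132 added 30 min after compound; luciferase reporter driven by HSF1 response element in NIH3T3 cells; actives raise luminescence as potentiators of the MG132 stress response.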 The experiment is classed as functional.
For experiment [12], the target named is T7, Rac GTPase-activating protein 1 (Homo sapiens, UniProt Q9H0H5).
T7 sequence (Q9H0H5 whole entry): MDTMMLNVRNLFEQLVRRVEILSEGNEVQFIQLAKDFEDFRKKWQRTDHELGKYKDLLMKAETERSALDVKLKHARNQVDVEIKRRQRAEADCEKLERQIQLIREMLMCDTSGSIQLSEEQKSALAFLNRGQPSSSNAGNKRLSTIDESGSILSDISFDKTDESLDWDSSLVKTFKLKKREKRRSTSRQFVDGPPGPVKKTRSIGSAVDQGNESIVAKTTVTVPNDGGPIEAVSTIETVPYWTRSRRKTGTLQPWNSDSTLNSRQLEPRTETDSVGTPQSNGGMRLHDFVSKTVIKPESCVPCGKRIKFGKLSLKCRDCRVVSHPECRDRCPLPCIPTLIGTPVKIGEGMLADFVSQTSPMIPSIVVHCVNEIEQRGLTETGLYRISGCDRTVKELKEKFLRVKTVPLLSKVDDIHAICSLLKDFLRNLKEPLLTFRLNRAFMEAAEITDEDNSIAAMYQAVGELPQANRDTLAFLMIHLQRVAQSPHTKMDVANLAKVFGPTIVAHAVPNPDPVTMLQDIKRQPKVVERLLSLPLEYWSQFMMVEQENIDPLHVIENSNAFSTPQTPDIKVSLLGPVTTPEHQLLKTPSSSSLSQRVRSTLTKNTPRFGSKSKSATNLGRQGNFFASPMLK
Put plainly: blockers of MgcRacGAP-driven Rac1 GTP hydrolysis – biochemical, ADP Hunter fluorescence, primary and confirmatory, confirmation (AID 624330). It is filed as functional.

T3 sequence (P11940 whole entry, the tested form may be a part): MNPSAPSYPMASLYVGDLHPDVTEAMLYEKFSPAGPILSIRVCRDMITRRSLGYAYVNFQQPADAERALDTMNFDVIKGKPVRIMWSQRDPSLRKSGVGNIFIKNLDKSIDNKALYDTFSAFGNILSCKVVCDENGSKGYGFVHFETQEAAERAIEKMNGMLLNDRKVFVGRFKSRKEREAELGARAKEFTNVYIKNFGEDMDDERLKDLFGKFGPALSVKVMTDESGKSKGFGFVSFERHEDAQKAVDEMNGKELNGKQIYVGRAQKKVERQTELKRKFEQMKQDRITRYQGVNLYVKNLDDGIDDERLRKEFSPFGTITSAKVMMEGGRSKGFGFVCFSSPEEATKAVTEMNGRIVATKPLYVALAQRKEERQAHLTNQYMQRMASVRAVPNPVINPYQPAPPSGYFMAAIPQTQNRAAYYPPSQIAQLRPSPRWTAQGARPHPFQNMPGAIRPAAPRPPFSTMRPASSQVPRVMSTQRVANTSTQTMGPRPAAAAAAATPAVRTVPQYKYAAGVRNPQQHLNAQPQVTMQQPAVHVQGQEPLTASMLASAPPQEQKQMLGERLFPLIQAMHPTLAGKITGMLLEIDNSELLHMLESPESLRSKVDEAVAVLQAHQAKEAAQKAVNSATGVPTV

As to `O=C(NCc1ccco1)C1CC(c2ccccc2O)=NO1` (centres undefined), the EC50 in experiment [1] was > 53 µM (inactive).
Consider `Cc1sc2nc(NCCO)nc(O)c2c1C`, for which the IC50 in [2] is > 79 µM (inactive).
As to `O=C1/C(=C/c2ccco2)CCc2ccccc21`, the IC50 in experiment [3] was 31.2 µM (active).
On to `Cc1ccc(-c2nc3cnccn3c2Nc2c(C)cccc2C)o1`, for which the IC50 in experiment [4] and in [5] was > 66 µM (inactive) in each case. For the same compound, the EC50 in [6] is > 195 µM (not active).
`O=C(CSc1nc2ccccc2o1)NCc1nnc(O)c2ccccc12`: the IC50 in experiment [2] was 8.34 µM (active).
`CCCNC(=O)c1ccc2c(O)c(O)c(-c3ccc(F)cc3)nc2c1`: the EC50 in [7] was > 38 µM (not active); in experiment [8], 4.47 µM (inconclusive); in experiment [9], > 150 µM (inactive); in experiment [10], 7.74 µM (inconclusive). In addition, the IC50 in experiment [2] was 14.1 µM (active).
For the compound `CCC(=O)N1c2ccc(S(=O)(=O)CCC(=O)NCc3cccs3)cc2CC1C` (centres undefined), the IC50 in experiment [3] was > 100 µM (inactive).
With `CCOC(=O)c1nc(Nc2ccc(C(=O)OC)cc2)c2ccccc2n1`, in experiment [2], the IC50 was > 79 µM (inactive).
As for `Cc1onc(-c2ccccc2)c1C(=O)NC(=S)NNC(=O)c1ccncc1`, the IC50 in experiment [4] and in experiment [5] was > 66 µM (inactive) each time.
As for `CCCc1nc2ccccc2c(C(=O)OCc2nnc(-c3cc(OC)c(OC)c(OC)c3)o2)c1CC`, the IC50 in experiment [2] was > 79 µM (inactive).
As for `CCCC(=O)Nc1cc(C)c2c(=O)oc3ccccc3c2n1`, the IC50 in experiment [2] was > 79 µM (inactive).
Turning to `CCCCOc1ccc(-c2nnc(-c3ccco3)o2)cc1`, in experiment [3], the IC50 is > 100 µM (inactive). In addition, the EC50 in [11] is > 260 µM (inactive).
As to `Cc1ccc(Cl)cc1N1C(=O)CC(Sc2ncccn2)C1=O` (centres undefined), the IC50 in experiment [4] and in experiment [5] was > 66 µM (inactive) in each case.
For the compound `CC(C)c1ccc(N2C(=O)CC(Sc3ncccn3)C2=O)cc1` (centres undefined), the IC50 in experiment [4] and in experiment [5] was > 66 µM (inactive) throughout.
On to `NS(=O)(=O)c1ccc(NC(S)=Nc2ccc(S(=O)(=O)N3CCCC3)cc2)cc1`, for which the IC50 in experiment [4] and in experiment [5] was > 66 µM (inactive) each time.
With `CCCCN(C(=S)NC(=O)c1ccccc1)c1c(N)n(Cc2ccccc2)c(=O)[nH]c1=O`, the IC50 in experiment [4] and in [5] was > 66 µM (inactive) each time.
Turning to `O=C(NC(=S)Nc1ccc(S(=O)(=O)Nc2nccs2)cc1)c1ccccc1`, the IC50 in [4] and in experiment [5] was > 66 µM (inactive) throughout.
`CC(Oc1ccc(Br)cc1)C(=O)N1CCc2ccccc21` (centres undefined): the EC50 in experiment [1] is 8.32 µM (active).
Take `O=C(O)c1ccc(Cl)c(NC(=S)NC(=O)c2ccccc2[N+](=O)[O-])c1`: the IC50 in experiment [4] and in experiment [5] was > 66 µM (inactive) in each case.
As for `CN1CN(c2ccccc2)C2(CCN(CCCSc3ccccc3NC(=O)/C=C/c3ccccc3)CC2)C1=O`, in experiment [1], the EC50 was 6.22 µM (active).
As for `NC(=O)c1cccc(-c2coc3c(C(=O)NCCc4ccccc4)cccc23)c1`, the IC50 in [2] was > 79 µM (inactive).
In the case of `COc1ccc(N2C(=O)CC(SCCc3nc4ccccc4[nH]3)C2=O)cc1` (centres undefined), the IC50 in experiment [4] and in experiment [5] was > 66 µM (inactive) in each case.
In the case of `O=C(N/N=C/c1ccccn1)c1cc(-c2cccc3ccccc23)[nH]n1`, the IC50 in experiment [2] was > 79 µM (inactive).
Regarding `Cc1cc(O)cc(O)c1/C=N/NC(=O)c1ccc2c(c1)OCCO2`, the IC50 was 30.8 µM (inactive) in [4] and > 66 µM (inactive) in experiment [5].
As for `Oc1ccc(Br)cc1/C=N/c1ccc2[nH]ncc2c1`, the IC50 in experiment [2] is 12.6 µM (active); in [12] it was 32.1 µM (active).
Turning to `CC1(C)Oc2ccc3ccc(=O)oc3c2C(/C=N/c2ccccn2)=C1O`, the IC50 in experiment [2] was > 79 µM (inactive).
Still for that read-out and setting: with `O=C(N/N=C/c1ccccn1)c1ccc(NC(=O)c2cccc([N+](=O)[O-])c2)cc1` the figure was > 79 µM (inactive).
